Results as given in PubChem BioAssay (NCI).
Where “and” joins values, the source holds several entries; their conditions need not be identical. Equal values may be shown once.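 Five compound concentrations were applied to cells in 96-well plates for 48 hours; endpoints were derived by simple linear interpolation of the resulting dose-response curve. GI50 marks 50% less growth. TGI: total growth inhibition.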

Key:
Test in all cases: DTP human tumour cell line panel, 48 h
[1] = system: SK-MEL-28 melanoma
[2] = system: KM12 colon
[3] = system: TK-10 renal
[4] = system: SR leukemia
[5] = system: NCI/ADR-RES ovarian
[6] = system: NCI-H226 lung
[7] = system: UACC-62 melanoma
[8] = system: SNB-75 CNS
[9] = system: MOLT-4 leukemia
[10] = system: SK-MEL-5 melanoma
[11] = system: CCRF-CEM leukemia
[12] = system: HCT-15 colon
[13] = system: A498 renal
[14] = system: HOP-62 NSCLC
[15] = system: SNB-19 CNS
[16] = system: A549 NSCLC
[17] = system: SF-539 CNS
[18] = system: HT29 colon
[19] = system: EKVX NSCLC
[20] = system: M14 melanoma
[21] = system: SF-268 CNS
[22] = system: NCI-H23 lung
[23] = system: NCI-H522 lung
[24] = system: MCF7 breast
[25] = system: PC-3 prostate
[26] = system: COLO 205 colon
[27] = system: OVCAR-8 ovarian
[28] = system: UO-31 renal
[29] = system: HOP-92 NSCLC

In the case of `C[C@H](NC(=O)c1c(N)nn2cccnc12)c1cc2cccc(C#Cc3cnn(C)c3)c2c(=O)n1-c1ccccc1`, the GI50 [1] is reported as 3.08 µM and 3.9 µM, the TGI [1] is reported as > 10 µM and 38.6 µM and the GI50 [2] is reported as 5.98 µM and 9.53 µM. For the same compound, the TGI [2] was > 10 µM and 61.4 µM, the GI50 [3] was 2.07 µM and 1.38 µM and the TGI [3] was > 10 µM and 12.1 µM. For the same compound, the GI50 [4] was 3.59 µM and 2.4 µM, the TGI [4] was over 100 µM and the GI50 [5] was 6.28 µM and 4.55 µM. For the same compound, the TGI [5] was > 10 µM and 56 µM, the GI50 [6] was > 10 µM and 11.8 µM and the TGI [6] was > 10 µM and 32.8 µM. The GI50 [7] was 0.682 µM and 1.38 µM, the TGI [7] was > 10 µM and 23.2 µM and the GI50 [8] was 0.679 µM and 0.531 µM. The TGI [8] was > 10 µM and 10.5 µM, the GI50 [9] was 2.17 µM and 1.96 µM and the TGI [9] was > 10 µM and 6.55 µM. The GI50 [10] was 4.54 µM and 12.3 µM, the TGI [10] was > 10 µM and 29.1 µM and the GI50 [11] was 0.588 µM and 0.357 µM. For the same compound, the TGI [11] was over 100 µM, the GI50 [12] was 2.69 µM and 4.68 µM and the TGI [12] was > 10 µM and 26.4 µM. The GI50 [13] was 1.17 µM and 0.241 µM, the TGI [13] was 8.24 µM and 1.79 µM and the GI50 [14] was 8.58 µM. For the same compound, the TGI [14] was over 10 µM, the GI50 [15] was 6.27 µM and 10.4 µM and the TGI [15] was over 100 µM. The GI50 [16] was 8.92 µM and 4.98 µM, the TGI [16] was > 10 µM and 30.2 µM and the GI50 [17] was 3.33 µM and 3.36 µM. For the same compound, the TGI [17] was > 10 µM and 16.4 µM, the GI50 [18] was 2.31 µM and 4 µM and the TGI [18] was > 10 µM and 43.3 µM. For the same compound, the GI50 [19] was 9.84 µM and 4.67 µM, the TGI [19] was over 100 µM and the GI50 [20] was > 10 µM and 11.8 µM. For the same compound, the TGI [20] was > 10 µM and 30.9 µM, the GI50 [21] was > 10 µM and 10.1 µM and the TGI [21] was > 10 µM and 72.2 µM. The GI50 [22] was 4.99 µM and 11 µM, the TGI [22] was > 10 µM and 24.7 µM and the GI50 [23] was 5.27 µM and 10.5 µM. For the same compound, the TGI [23] was > 10 µM and 54.8 µM, the GI50 [24] was 1.1 µM and 1.01 µM and the TGI [24] was > 10 µM and 87.7 µM. For the same compound, the GI50 [25] was 1.6 µM and 1.98 µM, the TGI [25] was over 100 µM and the GI50 [26] was 4.41 µM and 1.8 µM. The TGI [26] was > 10 µM and 5.23 µM, the GI50 [27] was > 10 µM and 12.6 µM and the TGI [27] was over 100 µM. The GI50 [28] was 0.666 µM and 0.981 µM, the TGI [28] was > 10 µM and 13.8 µM and the GI50 [29] was 0.524 µM and 1.41 µM.
